Experimental data: patent US10696651B2, “Heterocyclic compound” (Takeda Pharmaceutical Company Limited, priority 2016, dated 2020)
Counter-ions that a name gives are not always drawn. Like-named read-outs stand apart in the source and are kept apart here.

Columns and labels:
[1] = target: T1, human GCN2 full-length protein (Homo sapiens, UniProt Q9P2K8); assay: GCN2 enzyme inhibition assay (LanthaScreen TR-FRET); assay type: biochemical; conditions: GCN2 enzyme inhibitory activity at compound concentration of 3 μM; for inhibition at 3 µM: read-out: inhibitory rate
T1 construct: purchased Carna Biosciences, Inc
Protocol: GCN2 enzyme was preserved at -70° C. and used. The GCN2 enzyme inhibitory activity of the test compound was measured by the LanthaScreenTR-FRET (Time Resolved Fluorescence Resonance Energy Transfer) method (manufactured by ThermoFisher). […] Then, GCN2 enzyme solution diluted with the assay buffer was added by 2 μL to each well. The enzyme solution was not added to a part of the wells to give a control group. After incubation at room temperature for 1 hr, 570 μM ATP solution containing 390 nM […] physiological protein substrate (ThermoFisher) was added by 2 μL. After reaction at room temperature for 1 hr, TR-FRET Dilution Buffer (ThermoFisher) containing 4 nM Terbium-labeled anti-elF2alpha [[…]] antibody (ThermoFisher) dissolved therein was added by 2 μL to each well. After standing at room temperature for 1 hr, time decomposition fluorescence measurement was performed on platereader Envision (manufactured by PerkinElmer).

[2] = test system: osteosarcoma cell line U-2-OS; assay: In vitro cell proliferation inhibition assay (CellTiter-Glo, low amino acid media); assay type: cell-based; conditions: McCoy's 5A low amino acid media; for inhibition at 0.1 µM: Homo sapiens, U2OS, 72 h, cell proliferation inhibitory rate; for inhibitory rate: 72 hr
Protocol: A cell suspension (40 μL) (1000 cells/well) of osteosarcoma cell line U-2-OS obtained from ATCC (American Type Culture Collection) was seeded on a 384 plate using McCoy's 5A low amino acid media (amino acid content 25%). The seeded cells were incubated (37° C., 5% CO2) overnight to 24 hr at the longest. Each example compound was dissolved (10 mM) in DMSO, delivered to wells by using TECAN HP D300 (TECAN), and the plate was incubated for 72 hr (37° C., 5% CO2). A well without addition of compound was treated similarly as a control group. Celltiter-Glo (registered trade mark) Luminescent Cell Viability Assay reagent (Promega KK) equilibrated at room temperature was added (40 μL/well) to cells in each well before compound treatment (untreated group) and 72 hours after compound treatment. After incubation for 10 min, cell proliferation inhibitory rate was measured by the amount of ATP which is a cell viability marker. Luminescence of cells showing ATP amount was measured using ARVO MX (PerkinElmer). Based on the luminescence values of the untreatment group, the control group without addition of Example compound solution, and the treatment group with addition of Example compound, the cell proliferation inhibitory rate (%) of the test compound at a compound concentration of 100 nM was calculated by the following formula and the results thereof are shown in Tables 4-1, 4-2. Inhibitory rate (%)=(1−(luminescence value of treatment group−luminescence value of untreatment group)÷(luminescence value of control group−luminescence value of untreatment group))×100

T1 sequence (Q9P2K8 whole entry): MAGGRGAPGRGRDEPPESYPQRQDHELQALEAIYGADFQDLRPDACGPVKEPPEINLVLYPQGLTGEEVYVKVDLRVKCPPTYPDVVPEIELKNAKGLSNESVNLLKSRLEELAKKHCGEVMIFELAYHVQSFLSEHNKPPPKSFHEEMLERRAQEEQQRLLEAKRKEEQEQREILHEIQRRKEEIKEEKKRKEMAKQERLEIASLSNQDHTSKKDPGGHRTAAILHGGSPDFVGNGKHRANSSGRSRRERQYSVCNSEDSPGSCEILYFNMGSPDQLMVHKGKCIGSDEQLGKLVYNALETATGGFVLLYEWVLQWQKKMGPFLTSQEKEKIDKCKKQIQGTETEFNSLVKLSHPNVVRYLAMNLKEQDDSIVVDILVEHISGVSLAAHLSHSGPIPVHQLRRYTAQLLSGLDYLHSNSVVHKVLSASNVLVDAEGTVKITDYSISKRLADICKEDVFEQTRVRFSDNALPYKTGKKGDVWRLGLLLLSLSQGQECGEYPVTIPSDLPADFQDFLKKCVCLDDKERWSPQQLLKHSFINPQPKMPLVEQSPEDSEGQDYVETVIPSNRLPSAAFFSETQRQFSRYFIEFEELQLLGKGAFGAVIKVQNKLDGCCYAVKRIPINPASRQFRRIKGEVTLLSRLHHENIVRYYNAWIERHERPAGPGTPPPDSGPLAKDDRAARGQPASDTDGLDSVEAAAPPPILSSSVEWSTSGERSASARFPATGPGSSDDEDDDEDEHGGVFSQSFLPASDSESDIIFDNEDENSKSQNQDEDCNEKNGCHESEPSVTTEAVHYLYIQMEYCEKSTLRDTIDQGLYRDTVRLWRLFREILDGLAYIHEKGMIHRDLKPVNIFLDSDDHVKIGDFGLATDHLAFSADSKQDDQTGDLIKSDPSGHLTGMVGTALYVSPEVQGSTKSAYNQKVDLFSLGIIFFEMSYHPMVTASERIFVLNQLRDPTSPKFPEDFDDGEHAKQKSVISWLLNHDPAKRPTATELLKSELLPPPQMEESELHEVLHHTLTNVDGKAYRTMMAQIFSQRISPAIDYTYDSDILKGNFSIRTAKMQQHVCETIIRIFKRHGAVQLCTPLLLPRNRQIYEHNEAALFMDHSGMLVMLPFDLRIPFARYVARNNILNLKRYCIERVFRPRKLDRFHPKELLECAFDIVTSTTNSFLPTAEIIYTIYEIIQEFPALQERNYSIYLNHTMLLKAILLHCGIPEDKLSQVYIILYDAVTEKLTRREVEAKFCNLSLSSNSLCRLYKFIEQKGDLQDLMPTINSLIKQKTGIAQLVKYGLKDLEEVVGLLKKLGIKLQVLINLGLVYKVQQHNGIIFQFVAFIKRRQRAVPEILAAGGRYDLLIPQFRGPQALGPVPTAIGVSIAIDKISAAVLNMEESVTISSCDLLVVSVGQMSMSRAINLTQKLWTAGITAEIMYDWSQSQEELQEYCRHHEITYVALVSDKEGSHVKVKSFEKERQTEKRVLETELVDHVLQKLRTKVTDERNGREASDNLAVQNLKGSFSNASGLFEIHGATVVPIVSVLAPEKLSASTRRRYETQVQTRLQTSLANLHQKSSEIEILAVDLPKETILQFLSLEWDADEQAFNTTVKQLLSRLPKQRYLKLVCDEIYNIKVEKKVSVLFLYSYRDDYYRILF

## CCNc1ncc(C#Cc2c(F)ccc(NS(=O)(=O)c3cc(Cl)cc(CO)c3OC)c2F)cn1 [Example 137, 5-chloro-N-(3-((2-(ethylamino)pyrimidin-5-yl)ethynyl)-2,4-difluorophenyl)-3-(hydroxymethyl)-2-methoxybenzenesulfonamide]
[1]; Table 3-2
  inhibition at 3 µM: 99%
[2]; Table 4-2
  inhibition at 0.1 µM: 75%

## COc1c(CO)cc(Cl)cc1S(=O)(=O)Nc1ccc(F)c(C#Cc2cnc(NCCO)nc2)c1F [Example 149, 5-chloro-N-(2,4-difluoro-3-((2-((2-hydroxyethyl)amino)pyrimidin-5-yl)ethynyl)phenyl)-3-(hydroxymethyl)-2-methoxybenzenesulfonamide]
[1]; Table 3-2
  inhibition at 3 µM: 99%
[2]; Table 4-2
  inhibition at 0.1 µM: 70%

## O=S(=O)(Nc1ccc(F)c(C#Cc2cnc(N[C@H]3CC[C@H](O)CC3)nc2)c1F)c1cc(Cl)cc2c1OCC2O (stereo partly drawn) [Example 191, 5-chloro-N-(2,4-difluoro-3-((2-((trans-4-hydroxycyclohexyl)amino)pyrimidin-5-yl)ethynyl)phenyl)-3-hydroxy-2,3-dihydro-1-benzofuran-7-sulfonamide]
[1]; Table 3-2, 3 µM
  inhibitory rate: 99%
[2]; Table 4-2
  inhibitory rate: 74%

## O=S(=O)(Nc1ccc(F)c(C#Cc2cnc(N[C@H]3CC[C@H](O)CC3)nc2)c1F)c1cc(Cl)cc(CO)c1Cl [Example 176, 2,5-dichloro-N-(2,4-difluoro-3-((2-((trans-4-hydroxycyclohexyl)amino)pyrimidin-5-yl)ethynyl)phenyl)-3-(hydroxymethyl)benzenesulfonamide]
[1]; Table 3-2
  inhibition at 3 µM: 100%
[2]; Table 4-2
  inhibition at 0.1 µM: 77%

## Cc1ncc(Cl)cc1S(=O)(=O)Nc1ccc(F)c(C#Cc2cnc(N)nn2)c1F [Example 158, N-(3-((3-amino-1,2,4-triazin-6-yl)ethynyl)-2,4-difluorophenyl)-5-chloro-2-methylpyridine-3-sulfonamide]
[1]; Table 3-2
  inhibition at 3 µM: 99%
[2]; Table 4-2
  inhibition at 0.1 µM: 43%

## O=S(=O)(Nc1ccc(F)c(C#Cc2cnc(NC3COC3)nc2)c1F)c1cc(Cl)cc(CO)c1Cl [Example 181, 2,5-dichloro-N-(2,4-difluoro-3-((2-(oxetan-3-ylamino)pyrimidin-5-yl)ethynyl)phenyl)-3-(hydroxymethyl)benzenesulfonamide]
[1]; Table 3-2
  inhibition at 3 µM: 102%
[2]; Table 4-2
  inhibition at 0.1 µM: 80%

## CNc1ncc(Cl)cc1S(=O)(=O)Nc1ccc(F)c(C#Cc2cnc(N[C@H]3CC[C@H](O)CC3)nc2)c1F [Example 182, 5-chloro-N-(2,4-difluoro-3-((2-((trans-4-hydroxycyclohexyl)amino)pyrimidin-5-yl)ethynyl)phenyl)-2-(methylamino)pyridine-3-sulfonamide]
[1]; Table 3-2
  inhibition at 3 µM: 102%
[2]; Table 4-2
  inhibition at 0.1 µM: 71%

## COc1c(CO)cc(Cl)cc1S(=O)(=O)Nc1ccc(F)c(C#Cc2cnc(NC3COC3)nc2)c1F [Example 140, 5-chloro-N-(2,4-difluoro-3-((2-(oxetan-3-ylamino)pyrimidin-5-yl)ethynyl)phenyl)-3-(hydroxymethyl)-2-methoxybenzenesulfonamide]
[1]; Table 3-2
  inhibition at 3 µM: 99%
[2]; Table 4-2
  inhibition at 0.1 µM: 76%

## Nc1ncc(C#Cc2c(F)ccc(NS(=O)(=O)c3cc(Cl)ccc3Cl)c2F)cn1 [Example 17, N-(3-((2-aminopyrimidin-5-yl)ethynyl)-2,4-difluorophenyl)-2,5-dichlorobenzenesulfonamide]
[1]; Table 3-1
  inhibition at 3 µM: 99%
[2]; Table 4-1
  inhibitory rate: 73%

## Nc1ncc(C#Cc2c(F)ccc(NS(=O)(=O)c3cc(Cl)cc4ccoc34)c2F)cn1 [Example 173, N-(3-((2-aminopyrimidin-5-yl)ethynyl)-2,4-difluorophenyl)-5-chloro-1-benzofuran-7-sulfonamide]
[1]; Table 3-2
  inhibition at 3 µM: 99%
[2]; Table 4-2
  inhibition at 0.1 µM: 76%

## O=S(=O)(Nc1ccc(F)c(C#Cc2cnc3[nH]ncc3c2)c1F)c1c(Cl)c(Cl)cc(Cl)c1Cl [Example 23, 2,3,5,6-tetrachloro-N-(2,4-difluoro-3-(1H-pyrazolo[3,4-b]pyridin-5-ylethynyl)phenyl)benzenesulfonamide]
[1]; Table 3-1
  inhibition at 3 µM: 100%
[2]; Table 4-1
  inhibition at 0.1 µM: 72%

## O=S(=O)(Nc1ccc(F)c(C#Cc2cnc(N[C@H]3CC[C@H](O)CC3)nc2)c1F)c1cc(Cl)cc2c1OCC2O (stereo partly drawn) [Example 185, 5-chloro-N-(2,4-difluoro-3-((2-((trans-4-hydroxycyclohexyl)amino)pyrimidin-5-yl)ethynyl)phenyl)-3-hydroxy-2,3-dihydro-1-benzofuran-7-sulfonamide]
[1]; Table 3-2
  inhibition at 3 µM: 100%
[2]; Table 4-2
  inhibition at 0.1 µM: 56%

## COc1c(CO)cc(Cl)cc1S(=O)(=O)Nc1ccc(F)c(C#Cc2cnc(N[C@H]3CC[C@H](O)CC3)nc2)c1F [Example 153, 5-chloro-N-(2,4-difluoro-3-((2-((trans-4-hydroxycyclohexyl)amino)pyrimidin-5-yl)ethynyl)phenyl)-3-(hydroxymethyl)-2-methoxybenzenesulfonamide]
[1]; Table 3-2
  inhibition at 3 µM: 99%
[2]; Table 4-2
  inhibition at 0.1 µM: 78%

## Cc1ncc(Cl)cc1S(=O)(=O)Nc1ccc(F)c(C#Cc2cnc(N[C@H]3CC[C@H](O)CC3)nc2)c1F [Example 188, 5-chloro-N-(2,4-difluoro-3-((2-((trans-4-hydroxycyclohexyl)amino)pyrimidin-5-yl)ethynyl)phenyl)-2-methylpyridine-3-sulfonamide]
[1]; Table 3-2
  inhibition at 3 µM: 100%
[2]; Table 4-2
  inhibition at 0.1 µM: 77%

## O=S(=O)(Nc1ccc(F)c(C#Cc2cnc3[nH]ncc3c2)c1F)c1cccc(Cl)c1Cl [Example 38, 2,3-dichloro-N-(2,4-difluoro-3-(1H-pyrazolo[3,4-b]pyridin-5-ylethynyl)phenyl)benzenesulfonamide TFA Salt]
[1]; Table 3-1
  inhibition at 3 µM: 99%
[2]; Table 4-1
  inhibition at 0.1 µM: 22%

## Cc1ncc(Cl)cc1S(=O)(=O)Nc1ccc(F)c(C#Cc2cnc(N[C@H](C)CO)nc2)c1F [Example 189, 5-chloro-N-(2,4-difluoro-3-((2-(((2R)-1-hydroxypropan-2-yl)amino)pyrimidin-5-yl)ethynyl)phenyl)-2-methylpyridine-3-sulfonamide]
[1]; Table 3-2
  inhibition at 3 µM: 99%
[2]; Table 4-2
  inhibition at 0.1 µM: 79%

## CNc1ncc(Cl)cc1S(=O)(=O)Nc1ccc(F)c(C#Cc2cnc(N)nc2)c1F [Example 171, N-(3-((2-aminopyrimidin-5-yl)ethynyl)-2,4-difluorophenyl)-5-chloro-2-(methylamino)pyridine-3-sulfonamide]
[1]; Table 3-2
  inhibition at 3 µM: 100%
[2]; Table 4-2
  inhibition at 0.1 µM: 82%

## Nc1ncc(C#Cc2c(F)ccc(NS(=O)(=O)c3cc(Cl)cc4c3OCC4O)c2F)cn1 (centres unmarked) [Example 159, N-(3-((2-aminopyrimidin-5-yl)ethynyl)-2,4-difluorophenyl)-5-chloro-3-hydroxy-2,3-dihydro-1-benzofuran-7-sulfonamide]
[1]; Table 3-2
  inhibition at 3 µM: 99%
[2]; Table 4-2
  inhibition at 0.1 µM: 60%

## Cc1ncc(Cl)cc1S(=O)(=O)Nc1ccc(F)c(C#Cc2cnc(Nc3cnn(C)c3)nc2)c1F [Example 163, 5-chloro-N-(2,4-difluoro-3-((2-((1-methyl-1H-pyrazol-4-yl)amino)pyrimidin-5-yl)ethynyl)phenyl)-2-methylpyridine-3-sulfonamide]
[1]; Table 3-2
  inhibition at 3 µM: 100%
[2]; Table 4-2
  inhibition at 0.1 µM: 88%

## COc1c(CO)cc(Cl)cc1S(=O)(=O)Nc1ccc(F)c(C#Cc2cnc(NC3CCOC3)nc2)c1F (centres unmarked) [Example 141, 5-chloro-N-(2,4-difluoro-3-((2-(tetrahydrofuran-3-ylamino)pyrimidin-5-yl)ethynyl)phenyl)-3-(hydroxymethyl)-2-methoxybenzenesulfonamide]
[1]; Table 3-2
  inhibition at 3 µM: 99%
[2]; Table 4-2
  inhibition at 0.1 µM: 75%

## COc1c(CO)cc(Cl)cc1S(=O)(=O)Nc1ccc(F)c(C#Cc2cnc(NC3CC3)nc2)c1F [Example 138, 5-chloro-N-(3-((2-(cyclopropylamino)pyrimidin-5-yl)ethynyl)-2,4-difluorophenyl)-3-(hydroxymethyl)-2-methoxybenzenesulfonamide]
[1]; Table 3-2
  inhibition at 3 µM: 99%
[2]; Table 4-2
  inhibition at 0.1 µM: 87%

## O=S(=O)(Nc1ccc(F)c(C#Cc2cnc3[nH]ncc3c2)c1F)c1cc(Cl)cc(Cl)c1Cl [Example 20, 2,3,5-trichloro-N-(2,4-difluoro-3-(1H-pyrazolo[3,4-b]pyridin-5-ylethynyl)phenyl)benzenesulfonamide]
[1]; Table 3-1
  inhibition at 3 µM: 100%
[2]; Table 4-1
  inhibition at 0.1 µM: 63%
